The text below walks through data of patent US11008313B2, “Substituted 1-methyl-1,2,3,4-tetrahydroisoquinoline molecules as PCSK9 allosteric binders” (Merck Sharp & Dohme Corp., priority 2016, dated 2021).

In assay [1] the target is T1, PCSK9 (Homo sapiens, UniProt Q8NBP7). In words: Fluorescence polarization competition binding assay (probe: compound of Example 57). The following applies: 2 μM PCSK9, 50 nM compound of Example 57 as probe, overnight incubation; read-out: FP IC. Summed up:
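Competition fluorescence-polarization binding: 2 μM PCSK9 with 50 nM fluorescent probe in 20 mM HEPES pH 7.5, 150 mM NaCl, 1 mM CaCl2, 0.005% P-20, incubated with test compound overnight in the dark. Anisotropy read; % inhibition relative to DMSO wells and probe-without-PCSK9 wells.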

Assay [2] deals with T1, PCSK9. In words: Differential scanning calorimetry (DSC) assay, direct binding / thermal stabilization of PCSK9. The following applies: Tm(with compound)−Tm(no compound); 2 μM PCSK9, 300 μM test compound. Summed up: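 Thermal stabilization of 2 μM PCSK9 with or without 300 μM compound in 25 mM HEPES pH 7.5, 150 mM NaCl, 1 mM CaCl2, 3.75% DMSO. Sample heated 20–80 °C at 200 °C/hr against buffer reference. Protein Tm derived from each thermogram.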

T1 sequence (Q8NBP7 153-692): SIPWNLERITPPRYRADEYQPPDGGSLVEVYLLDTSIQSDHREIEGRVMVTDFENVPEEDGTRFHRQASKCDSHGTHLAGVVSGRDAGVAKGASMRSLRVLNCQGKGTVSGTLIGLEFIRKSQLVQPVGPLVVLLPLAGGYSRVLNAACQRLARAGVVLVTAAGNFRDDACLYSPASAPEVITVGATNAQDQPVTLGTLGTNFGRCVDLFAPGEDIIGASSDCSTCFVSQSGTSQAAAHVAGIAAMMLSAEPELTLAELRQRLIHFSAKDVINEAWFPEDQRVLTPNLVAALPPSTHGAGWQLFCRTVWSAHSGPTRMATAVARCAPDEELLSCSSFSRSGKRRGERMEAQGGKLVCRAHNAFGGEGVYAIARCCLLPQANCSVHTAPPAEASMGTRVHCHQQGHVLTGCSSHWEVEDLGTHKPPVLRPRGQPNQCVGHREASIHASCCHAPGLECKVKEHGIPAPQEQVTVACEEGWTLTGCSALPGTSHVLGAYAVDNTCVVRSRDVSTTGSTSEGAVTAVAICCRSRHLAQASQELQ

For `C[C@]1(CC(=O)Nc2nccs2)NCCc2cc(OCCn3cc(CNS(C)(=O)=O)nn3)c(Oc3ccc(C(=O)O)c(F)c3)cc21` [Example 50, (R)-2-fluoro-4-((1-methyl-6-(2-(4-(methylsulfonamidomethyl)-1H-1,2,3-triazol-1-yl)ethoxy)-1-(2-oxo-2-(thiazol-2-ylamino)ethyl)-1,2,3,4-tetrahydroisoquinolin-7-yl)oxy)benzoic acid], the IC50 at PCSK9 [1] was determined as 683 nM. Moreover, the ΔTm at 300 µM on PCSK9 [2] worked out at 6.74 °C.

In the case of `C[C@]1(CC(=O)Nc2nccs2)NCCc2cc(OCCn3cc(C(N)CO)nn3)c(Oc3ccc(C(=O)O)c(F)c3)cc21` (stereo partly drawn) [Example 37, 4-(((1R)-6-(2-(4-(1-amino-2-hydroxyethyl)-1H-1,2,3-triazol-1-yl)ethoxy)-1-methyl-1-(2-oxo-2-(thiazol-2-ylamino)ethyl)-1,2,3,4-tetrahydroisoquinolin-7-yl)oxy)-2-fluorobenzoic acid], the IC50 on PCSK9 [1] is 615 nM. Further, the ΔTm at 300 µM at PCSK9 [2] is 5.63 °C.

For `COc1cc2c(cc1Oc1ccc(-c3c[nH]c4c(C(=O)O)cccc34)c(F)c1)[C@@](C)(CC(=O)Nc1nccs1)NCC2` [Example 21, (R)-3-(2-fluoro-4-((6-methoxy-1-methyl-1-(2-oxo-2-(thiazol-2-ylamino)ethyl)-1,2,3,4-tetrahydroisoquinolin-7-yl)oxy)phenyl)-1H-indole-7-carboxylic acid], the IC50 at PCSK9 [1] amounted to 200 nM. The ΔTm at 300 µM at PCSK9 [2] was 6.58 °C.

On to `COC(=O)c1ccc2cc1OCCCCCc1csc(n1)NC(=O)C[C@@]1(C)NCCc3cc(OC)c(cc31)O2` [Example 3, methyl (R,Z)-36-methoxy-31-methyl-5-oxo-31,32,33,34-tetrahydro-2,13-dioxa-6-aza-7(2,4)-thiazola-3(7,1)-isoquinolina-1(1,3)-benzenacyclotridecaphane-14-carboxylate], for which the IC50 at PCSK9 [1] came to 1250 nM. Besides, the ΔTm at 300 µM on PCSK9 [2] amounted to 4.92 °C.

Consider `C[C@]1(CC(=O)Nc2nccs2)NCCc2cc(OCCn3cc(-c4cnccn4)nn3)c(Oc3ccc(C(=O)O)c(F)c3)cc21` [Example 49, (R)-2-fluoro-4-((1-methyl-1-(2-oxo-2-(thiazol-2-ylamino)ethyl)-6-(2-(4-(pyrazin-2-yl)-1H-1,2,3-triazol-1-yl)ethoxy)-1,2,3,4-tetrahydroisoquinolin-7-yl)oxy)benzoic acid], for which the IC50 on PCSK9 [1] was 682 nM. For the same compound, the ΔTm at 300 µM at PCSK9 [2] was determined as 6.29 °C.

For the compound `COc1cc2c(cc1Oc1cccc(F)c1)[C@@](C)(CC(=O)Nc1cccc3[nH]ccc13)NCC2` [Example 12, (R)-2-(7-(3-fluorophenoxy)-6-methoxy-1-methyl-1,2,3,4-tetrahydroisoquinolin-1-yl)-N-(1H-indol-4-yl)acetamide], the IC50 on PCSK9 [1] came to 753 nM. In addition, the ΔTm at 300 µM on PCSK9 [2] is -0.225 °C.

With `COCCOc1cc2c(cc1Oc1ccc(C(=O)O)cc1)[C@@](C)(CC(=O)Nc1nccs1)NCC2` [Example 69, (R)-4-((6-(2-methoxyethoxy)-1-methyl-1-(2-oxo-2-(thiazol-2-ylamino)ethyl)-1,2,3,4-tetrahydroisoquinolin-7-yl)oxy)benzoic acid], at PCSK9 [1], the IC50 amounted to 541 nM. The ΔTm at 300 µM on PCSK9 [2] was found to be 7.65 °C.

With `COc1cc2c(cc1Oc1cc(F)c(C(=O)O)c(F)c1)[C@@](C)(CC(=O)Nc1nccs1)NCC2` [Example 5, (R)-2,6-difluoro-4-((6-methoxy-1-methyl-1-(2-oxo-2-(thiazol-2-ylamino)ethyl)-1,2,3,4-tetrahydroisoquinolin-7-yl)oxy)benzoic acid], on PCSK9 [1], the IC50 was determined as 561 nM. For the same compound, the ΔTm at 300 µM on PCSK9 [2] stood at 6.99 °C.

`COc1cc2c(cc1Oc1ccc(-c3ccc(C(=O)O)cc3)cc1)[C@@](C)(CC(=O)Nc1nccs1)NCC2` [Example 26, (R)-4′-((6-methoxy-1-methyl-1-(2-oxo-2-(thiazol-2-ylamino)ethyl)-1,2,3,4-tetrahydroisoquinolin-7-yl)oxy)-[1,1′-biphenyl]-4-carboxylic acid]: the IC50 on PCSK9 [1] was 386 nM. Besides, the thermal shift (ΔTm) at 300 µM on PCSK9 [2] worked out at 5.75 °C.

`COc1cc2c(cc1Oc1ccnc(F)c1)[C@@](C)(CC(=O)Nc1nccs1)NCC2` [Example 7, (R)-2-(7-((2-fluoropyridin-4-yl)oxy)-6-methoxy-1-methyl-1,2,3,4-tetrahydroisoquinolin-1-yl)-N-(thiazol-2-yl)acetamide]: at PCSK9 [1], the IC50 turned out to be 652 nM. Moreover, the ΔTm at 300 µM at PCSK9 [2] stood at 5.59 °C.

For the compound `COc1cc2c(cc1Oc1ccc(-c3ccc(C(=O)O)cc3)cc1)[C@@](C)(CC(=O)Nc1nccs1)NCC2` [Example 34, (R)-4′-((6-methoxy-1-methyl-1-(2-oxo-2-(thiazol-2-ylamino)ethyl)-l,2,3,4-tetrahydroisoquinolin-7-yl)oxy)-[1,1′-biphenyl]-4-carboxylic acid], the IC50 on PCSK9 [1] is 667 nM. Further, the “DSC ΔTm” value at PCSK9 [2] was found to be 5.5 °C.

For `C[C@]1(CC(=O)Nc2nccs2)NCCc2cc(OCCn3cc(CCCCCCCCC(=O)O)nn3)c(Oc3ccc(C(=O)O)c(F)c3)cc21` [Example 44, (R)-4-((6-(2-(4-(8-carboxyoctyl)-1H-1,2,3-triazol-1-yl)ethoxy)-1-methyl-1-(2-oxo-2-(thiazol-2-ylamino)ethyl)-1,2,3,4-tetrahydroisoquinolin-7-yl)oxy)-2-fluorobenzoic acid], the IC50 on PCSK9 [1] was 426 nM. In addition, at PCSK9 [2], the thermal shift (ΔTm) at 300 µM amounted to 6.89 °C.

Take `COc1cc2c(cc1Oc1ccc(-c3c[nH]c(C(=O)O)c3)c(F)c1)[C@@](C)(CC(=O)Nc1nccs1)NCC2` [Example 14, (R)-4-(2-fluoro-4-((6-methoxy-1-methyl-1-(2-oxo-2-(thiazol-2-ylamino)ethyl)-1,2,3,4-tetrahydroisoquinolin-7-yl)oxy)phenyl)-1H-pyrrole-2-carboxylic acid]: the IC50 at PCSK9 [1] is 0.237 nM. Also, the ΔTm at 300 µM on PCSK9 [2] was 5.89 °C.

As for `Cc1cn(-c2ccc(-c3cn(CCOc4cc5c(cc4Oc4ccc(C(=O)O)c(F)c4)[C@@](C)(CC(=O)Nc4nccs4)NCC5)nn3)cc2C)cn1` [Example 40, (R)-2-fluoro-4-((1-methyl-6-(2-(4-(3-methyl-4-(4-methyl-1H-imidazol-1-yl)phenyl)-1H-1,2,3-triazol-1-yl)ethoxy)-1-(2-oxo-2-(thiazol-2-ylamino)ethyl)-1,2,3,4-tetrahydroisoquinolin-7-yl)oxy)benzoic acid], the IC50 on PCSK9 [1] turned out to be 302 nM. For the same compound, at PCSK9 [2], the ΔTm at 300 µM is 6.75 °C.

As to `COC(=O)c1cc(-c2cc3c(cc2OCC2CCCCO2)CCNC3(C)CC(=O)Nc2nccs2)ccc1F` (centres unmarked) [Example 111, methyl 2-fluoro-5-(1-methyl-1-(2-oxo-2-(thiazol-2-ylamino)ethyl)-6-((tetrahydro-2H-pyran-2-yl)methoxy)-1,2,3,4-tetrahydroisoquinolin-7-yl)benzoate], at PCSK9 [1], the IC50 was 1.55 nM. Also, at PCSK9 [2], the thermal shift (ΔTm) at 300 µM was 6.27 °C.

Regarding `COc1cc2c(cc1Oc1ccc(-c3ccc(/C=C/C(=O)O)cc3)c(F)c1)[C@@](C)(CC(=O)Nc1nccs1)NCC2` [Example 28, (RE)-3-(2′-fluoro-4′-((6-methoxy-1-methyl-1-(2-oxo-2-(thiazol-2-ylamino)ethyl)-1,2,3,4-tetrahydroisoquinolin-7-yl)oxy)-[1,1′-biphenyl]-4-yl)acrylic acid], the IC50 at PCSK9 [1] worked out at 407 nM. For the same compound, the ΔTm at 300 µM on PCSK9 [2] was found to be 6.91 °C.

In the case of `COc1cccc(NC(=O)C[C@@]2(C)NCCc3cc(OCC4CCCCO4)c(Oc4ccc(Br)c(F)c4)cc32)c1` (stereo partly drawn) [Example 86, 2-((1R)-7-(4-bromo-3-fluorophenoxy)-1-methyl-6-((tetrahydro-2H-pyran-2-yl)methoxy)-1,2,3,4-tetrahydroisoquinolin-1-yl)-N-(3-methoxyphenyl)acetamide], at PCSK9 [1], the IC50 was determined as 1.17 nM. Further, the ΔTm at 300 µM on PCSK9 [2] was 6.18 °C.

Regarding `COc1cc2c(cc1Oc1ccc(-c3ccc(C(=O)O)cc3F)c(F)c1)[C@@](C)(CC(=O)Nc1nccs1)NCC2` [Example 25, (R)-2,2′-difluoro-4′-((6-methoxy-1-methyl-1-(2-oxo-2-(thiazol-2-ylamino)ethyl)-1,2,3,4-tetrahydroisoquinolin-7-yl)oxy)-[1,1′-biphenyl]-4-carboxylic acid], the IC50 at PCSK9 [1] is 302 nM. Moreover, the ΔTm at 300 µM at PCSK9 [2] was determined as 6.6 °C.

Regarding `COc1cc2c3cc1Oc1ccc(C(=O)O)c(c1)OC/C=C\CCc1csc(n1)NC(=O)C[C@@]3(C)NCC2` [Example 2, (R,72Z)-36-methoxy-31-methyl-5-oxo-31,32,33,34-tetrahydro-2,13-dioxa-6-aza-7(2,4)-thiazola-3(7,1)-isoquinolina-1(1,3)-benzenacyclotridecaphan-10-ene-14-carboxylic acid], the IC50 at PCSK9 [1] is 1240 nM. The ΔTm at 300 µM at PCSK9 [2] came out at 6.21 °C.

For the compound `C[C@]1(CC(=O)Nc2nccs2)NCCc2cc(OCC3CCCO3)c(Oc3cccc(F)c3)cc21` (stereo partly drawn) [Example 82, 2-((1R)-7-(3-fluorophenoxy)-1-methyl-6-((tetrahydrofuran-2-yl)methoxy)-1,2,3,4-tetrahydroisoquinolin-1-yl)-N-(thiazol-2-yl)acetamide], on PCSK9 [1], the IC50 is 721 nM. Moreover, at PCSK9 [2], the ΔTm at 300 µM was 7.47 °C.

Turning to `COc1cc2c(cc1Oc1ccc(-c3ccc(C(=O)O)cc3F)nc1)[C@@](C)(CC(=O)Nc1nccs1)NCC2` [Example 33, (R)-3-fluoro-4-(5-((6-methoxy-1-methyl-1-(2-oxo-2-(thiazol-2-ylamino)ethyl)-1,2,3,4-tetrahydroisoquinolin-7-yl)oxy)pyridin-2-yl)benzoic acid], the IC50 at PCSK9 [1] amounted to 560 nM. For the same compound, the ΔTm at 300 µM on PCSK9 [2] worked out at 5.2 °C.

As to `CC1(CC(=O)Nc2nccs2)NCCc2cc(OCC3CCCCO3)c(-c3ccc(F)c(C(=O)O)c3)cc21` (centres unmarked) [Example 110, 2-fluoro-5-(1-methyl-1-(2-oxo-2-(thiazol-2-ylamino)ethyl)-6-((tetrahydro-2H-pyran-2-yl)methoxy)-1,2,3,4-tetrahydroisoquinolin-7-yl)benzoic acid], the IC50 at PCSK9 [1] was 0.98 nM. Also, the ΔTm at 300 µM on PCSK9 [2] came to 6.7 °C.
